# Laboratory results as given in US6093692A, “Method and compositions for lipidization of hydrophilic molecules” (The University of Southern California, priority 1997, dated 2000).
# Key:
# [1] = Plasma calcitonin and calcium after subcutaneous administration; assay type: in vivo, mice; settings: s.c., 125 μg/kg in 10% Liposyn II
# Protocol: Both CT and CT-P were iodinated with ^125 I using chloramine T method. ^125 I-CT or ^125 I-CT-P was injected s.c. into mice at a dose of 125 μg/kg in 10% Liposyn® II (Abbott). Groups of three mice were sacrificed at different time points. The levels of calcium in the blood samples were determined by using a commercial calcium diagnostic kit (Sigma Chemical Co.). The plasma from each mouse was isolated and treated with 5% trichloroacetic acid (TCA) in an ice bath. The radioactivity in the hs TCA precipitates were considered as the intact CT in the plasma.
# [2] = Gastro-intestinal absorption and calcium-lowering effect after oral administration; assay type: in vivo, CF mice; settings: 100 μg/kg in PBS, one hour, CT-RIA, N = 3, S.D.
# Protocol: CT and CT-P were orally administered to CF mice using a gavaging needle at a dose of 100 μg/kg in PBS. The mice, three of each group, were sacrificed 1 hour after the treatment, and the plasma was isolated from their blood. The levels of CT and calcium were measured by using commercial CT-RIA (Phoenix) and calcium diagnostic (Sigma Chemical Co.) kits, respectively. […] Furthermore, the level of calcium in plasma at 1 hour was lower in CT-P treated mice than that in CT treated mice, which was consistent with the finding in CT levels. Because the crossreactivity of CT-P to the anti-CT antibody is only about 10%, the actual concentration of total CT in the plasma of CT-P treated mice could be even higher than the value presented in Table 5.
# [3] = test system: Brattleboro rats with hereditary hypothalamic diabetes insipidus; assay: Anti-diuretic effects in rats with hereditary hypothalamic diabetes insipidus, subcutaneous; assay type: in vivo; settings: s.c., 3.3 μg/kg in 10% Liposyn II, FIG. 7
# Protocol: Brattleboro rats, which carry the hereditary disease of hypothalamic diabetes insipidus, were used to compare the effects of DP and DP-P for alleviating the disease symptoms, i.e., polyuria and polydipsia. A group of three Brattleboro rats were kept separately in three metabolic cages. Their body weight, water intake and urine output were measured every day. DP and DP-P were dissolved in 10% Liposyn® II (Abbott Laboratories, Abbott Park, Ill., USA) and injected subcutaneously (s.c.) to each rat at doses ranging from 0.02 to 20 μg/kg. […] On the other hand, DP-P at the identical dose could maintain the rats symptom-free for more than 3 days, as indicated by the reduction of both water intake and urine output without significant change of the body weight.
# In order to evaluate the dose-dependent responses to DP and DP-P in Battleboro rats, the effectiveness of anti-diuretic activity was defined as the length of time that a more than 50% reduction of the urine volume can be maintained in the treated animals.
# [4] = test system: mouse fibroblasts L929 cells; assay: Cellular uptake of HRPssPal; assay type: cell-based; settings: 30 μg/ml, serum-free medium, 1 hour, 37° C.
# Protocol: Confluent monolayers of mouse fibroblasts L929 cells in 6-well culture cluster plates were incubated in serum-free medium with 30 μg/ml of HRP, either as the native form or as the palmitic acid conjugate (HRPssPal). After 1 hour at 37° C., monolayers were washed three times with PBS and then dissolved in 1 ml of 0.05% of Triton-X100. Cell-associated HRP was determined by measuring the enzymatic activity in each cell extract and the results converted to ng HRP per cell monolayer. […] Therefore, a 30-fold increase in cell uptake was achieved by modification of HRP with Pal-PDC.
# [5] = test system: Caco-2 monolayers; assay type: in vitro ADME, Human
# Protocol: Suspended Caco-2 cells in 1.5 ml of medium were seeded into the apical chamber of the transwells at a density of 0.5 million cells per insert. 2.5 ml of the medium was then added to the basal chambers of each transwell. The cells were allowed to attach for 2 days without disturbance and were then fed every other day until the experiments were performed. The cells were maintained for approximately 14-20 days prior to the experiments and were fed 24 hr before each experiment. The cell monolayers developed a transepithelial electrical resistance (TEER) of approximately 500-600 .OMEGA.) cm^2 within one week of the seeding and maintained this resistance for up to 21 days post-seeding.
# Confluent cell monolayers, 2 to 3 weeks old, and having a TEER value of approximately 500 .OMEGA. cm^2, were first incubated with Dulbecco's MEM containing 1% of FBS for 30 min at 37° C. […] At predetermined times, the entire basal chamber medium (2.5 ml) from each transwell was removed and counted for radioactivity using a gamma counter. […] After the 24 hr samples were taken, the cell monolayers were rinsed three times with ice-cold PBS, cut out of the inserts, and counted for accumulated radioactivity using a gamma counter. […]
# BBI was modified with 2 or 4 palmitic acids, and the transport was determined in transwells. […]
molecule,measurement,setting,value
"CC(C)C[C@H](NC(=O)[C@H](CCCCN)NC(=O)CNC(=O)[C@H](CC(C)C)NC(=O)[C@@H](NC(=O)[C@@H]1CSSC[C@H](N)C(=O)N[C@@H](CO)C(=O)N[C@@H](CC(N)=O)C(=O)N[C@@H](CC(C)C)C(=O)N[C@@H](CO)C(=O)N[C@@H]([C@@H](C)O)C(=O)N1)C(C)C)C(=O)N[C@@H](CO)C(=O)N[C@@H](CCC(N)=O)C(=O)N[C@@H](CCC(=O)O)C(=O)N[C@@H](CC(C)C)C(=O)N[C@@H](Cc1c[nH]cn1)C(=O)N[C@@H](CCCCN)C(=O)N[C@@H](CC(C)C)C(=O)N[C@@H](CCC(N)=O)C(=O)N[C@H](C(=O)N[C@@H](Cc1ccc(O)cc1)C(=O)N1CCC[C@H]1C(=O)N[C@@H](CCCNC(=N)N)C(=O)N[C@H](C(=O)N[C@@H](CC(N)=O)C(=O)N[C@H](C(=O)NCC(=O)N[C@@H](CO)C(=O)NCC(=O)N[C@H](C(=O)N1CCC[C@H]1C(N)=O)[C@@H](C)O)[C@@H](C)O)[C@@H](C)O)[C@@H](C)O [CT, Salmon calcitonin]",Plasma clearance,[1],rapid plasma clearance
same,"Plasma calcitonin concentration, CT",[2],9.2 ± 0.7 pg/0.1 ml plasma
"NC(=O)CC[C@@H]1NC(=O)[C@H](Cc2ccccc2)NC(=O)[C@H](Cc2ccc(O)cc2)NC(=O)CCSSC[C@@H](C(=O)N2CCC[C@H]2C(=O)N[C@H](CCCN=C(N)N)C(=O)NCC(N)=O)NC(=O)[C@H](CC(N)=O)NC1=O [DP, Desmopressin]",Time rats maintained symptom-free,[3],less than one
horseradish peroxidase [HRP],Cellular uptake,[4],7 ng HRP per cell monolayer
"BBIssPal(4): BBI modified with 4 palmitic acids (conjugate, UniProt P01055 40-110, looked up, 4 palmityl disulfide groups, BBI modified with 4 palmitic acids) Bowman-Birk type proteinase …: DDESSKPCCDQCACTKSNPPQCRCSDMRLNSCHSACKSCICALSYPAQCFCVDITDFCYEPCKPSEDDKEN",Internalization of the conjugates into the cells (rank),[5],highest uptake into the cells
